# From US7858647B2, “N-[1,3,4]-thiadiazol-2-yl-benzene sulfonamides, pharmaceutical compositions thereof and methods for their therapeutic use” (Sanofi-Aventis, priority 2005, dated 2010)
# Target: T1, human PPARgamma (Homo sapiens, UniProt P37231)
# T1 construct: amino acids I152-Y475; expressed in transfected cells; host or cells: HEK cells (transient transfection of pcDNA3-GAL4-humanPPARgammaLBD)
# T1 sequence (P37231 182-477 isoform P37231-2 limits assumed): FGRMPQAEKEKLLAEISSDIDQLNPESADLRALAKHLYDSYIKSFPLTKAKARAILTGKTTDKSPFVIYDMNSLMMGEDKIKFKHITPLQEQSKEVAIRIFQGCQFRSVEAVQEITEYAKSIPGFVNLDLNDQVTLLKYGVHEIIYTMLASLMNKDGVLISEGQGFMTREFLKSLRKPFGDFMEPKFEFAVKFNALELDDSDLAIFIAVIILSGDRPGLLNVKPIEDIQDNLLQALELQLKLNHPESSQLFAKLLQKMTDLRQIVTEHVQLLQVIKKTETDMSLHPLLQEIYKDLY
# Assay: Cellular PPARgamma assay (luciferase reporter, transiently transfected HEK cells)
# Assay type: cell-based
# Conditions: GAL4-humanPPARgammaLBD
# Source text: A transient transfection system is employed to determine the cellular PPARgamma activity of PPAR agonists. It is based on the use of a luciferase reporter plasmid (pGL3basic-5×GAL4-TK) and of a PPARgamma expression plasmid (pcDNA3-GAL4-humanPPARgammaLBD). Both plasmids are transiently transfected into human embryonic kidney cells (HEK cells). There is then expression in these cells of the fusion protein GAL4-humanPPARgammaLBD which binds to the GAL4 binding sites of the reporter plasmid. In the presence of a PPARgamma-active ligand, the activated fusion protein GAL4-humanPPARgammaLBD induces expression of the luciferase reporter gene, which can be detected in the form of a chemiluminescence signal after addition of a luciferase substrate. As a difference from the stably transfected PPARalpha reporter cell line, in the cellular PPARgamma assay the two components (luciferase reporter plasmid and PPARgamma expression plasmid) are transiently transfected into HEK cells because stable and permanent expression of the PPARgamma fusion protein is cytotoxic.
# The luciferase reporter plasmid pGL3basic-5×GAL4-TK is based on the vector pGL3basic from Promega. The reporter plasmid is prepared by cloning five binding sites of the yeast transcription factor GAL4 (each binding site with the sequence 5′-CTCGGAGGACAGTACTCCG-3′), together with a 160 bp-long thymidine kinase promoter section (Genbank Accession #AF027128) 5′-upstream into pGL3basic. 3′-downstream of the thymidine kinase promoter is the complete luciferase gene from Photinus pyralis (Genbank Accession #M15077) which is already a constituent of the plasmid pGL3basic used. The cloning and sequencing of the reporter plasmid pGL3basic-5×GAL4-TK took place in analogy to the description in Sambrook J. et. al. (Molecular cloning, Cold Spring Harbor Laboratory Press, 1989).
# The PPARgamma expression plasmid pcDNA3-GAL4-humanPPARgammaLBD was prepared by first cloning the cDNA coding for amino acids 1-147 of the yeast transcription factor GAL4 (Genbank Accession #P04386) into the plasmid pcDNA3 (from Invitrogen) 3′-downstream of the cytomegalovirus promoter. Subsequently, the cDNA of the ligand-binding domain (LBD) of the human PPARgamma receptor (amino acids I152-Y475; Accession #g1480099) 3′-downstream of the GAL4 DNA binding domain. Cloning and sequencing of the PPARgamma expression plasmid pcDNA3-GAL4-humanPPARgammaLBD again took place in analogy to the description in Sambrook J. et. al. (Molecular cloning, Cold Spring Harbor Laboratory Press, 1989). Besides the luciferase reporter plasmid pGL3basic-5×GAL4-TK and the PPARgamma expression plasmid pcDNA3-GAL4-humanPPARgammaLBD, also used for the cellular PPARgamma assay are the reference plasmid pRL-CMV (from Promega) and the plasmid pBluescript SK(+) from Stratagene. All four plasmids were prepared using a plasmid preparation kit from Qiagen, which ensured a plasmid quality with a minimal endotoxin content, before transfection into HEK cells.
# The activity of PPARgamma agonists is determined in a 4-day assay which is described below. Before the transfection, HEK cells are cultivated in DMEM (#41965-039, Invitrogen) which is mixed with the following additions: 10% FCS (#16000-044, Invitrogen), 1% penicillin-streptomycin solution (#15140-122, Invitrogen) and 2 mM L-glutamine (#25030-024, Invitrogen).
# Firstly, solution A, a transfection mixture which contains all four plasmids previously described in addition to DMEM, is prepared. The following amounts are used to make up 3 ml of solution A for each 96 well microtiter plate for an assay: 2622 μl of antibiotic- and serum-free DMEM (#41965-039, Invitrogen), 100 μl of reference plasmid pRL-CMV (1 ng/μl), 100 μl of luciferase reporter plasmid pGL3basic-5×GAL4-TK (10 ng/μl), 100 μl of PPARgamma expression plasmid pcDNA3-GAL4-humanPPARgammaLBD (100 ng/μl) and 78 μl of plasmid pBluescript SK(+) (500 ng/μl). […]
row,EC50 [nM],Compound
1,270,"CC(C)(C)c1nnc(NS(=O)(=O)c2ccc(CCNC(=O)c3cc(Cl)ccc3Cl)cc2)s1 [Example 35, N-{2-[4-(5-tert-Butyl-[1,3,4]thiadiazol-2-ylsulfamoyl)-phenyl]-ethyl}-2,5-dichloro-benzamide]"
2,4870,"Cc1ccc(Cl)cc1C(=O)NCCc1ccc(S(=O)(=O)Nc2nnc(-c3ccccc3)s2)cc1 [Example 32, 5-Chloro-2-methyl-N-{2-[4-(5-phenyl-[1,3,4]thiadiazol-2-ylsulfamoyl)-phenyl]-ethyl}-benzamide]"
3,380,"COc1cc(C(F)(F)F)ccc1C(=O)NCCc1ccc(S(=O)(=O)Nc2nnc(C(C)C)s2)cc1 [Example 1, N-{2-[4-(5-Isopropyl-[1,3,4]thiadiazol-2-ylsulfamoyl)-phenyl]-ethyl}-2-methoxy-4-trifluoromethyl-benzamide]"
4,1870,"Cc1cc(Br)c(C(=O)NCCc2ccc(S(=O)(=O)Nc3nnc(C(C)C)s3)cc2)s1 [Example 47, 3-Bromo-5-methyl-thiophene-2-carboxylic acid {2-[4-(5-isopropyl-[1,3,4]thiadiazol-2-ylsulfamoyl)-phenyl]-ethyl}-amide]"
5,1530,"CC(C)c1nnc(NS(=O)(=O)c2ccc(CNC(=O)c3ccc(C(F)(F)F)cc3)cc2)s1 [Example 24, N-[4-(5-Isopropyl-[1,3,4]thiadiazol-2-ylsulfamoyl)-benzyl]-4-trifluoromethyl-benzamide]"
6,10,"CCOc1cc(C(F)(F)F)ccc1C(=O)NCC(CC)c1ccc(S(=O)(=O)Nc2nnc(C(C)C)s2)cc1 (single isomer, unassigned) [Example 44b]"
7,1110,"COc1ccc(C(=O)NCCc2ccc(S(=O)(=O)Nc3nnc(C(C)C)s3)cc2)c(OC)n1 [Example 5, N-{2-[4-(5-Isopropyl-[1,3,4]thiadiazol-2-ylsulfamoyl)-phenyl]-ethyl}-2,6-dimethoxy-nicotinamide]"
8,30,"CCOc1cc(C(F)(F)F)ccc1C(=O)NCC(CC)c1ccc(S(=O)(=O)Nc2nnc(C(C)C)s2)cc1 (single isomer, unassigned) [Example 44a]"
9,180,"COc1ccc(C(C)(C)C)cc1C(=O)NCCc1ccc(S(=O)(=O)Nc2nnc(C(C)C)s2)cc1 [Example 2, 5-tert-Butyl-N-{2-[4-(5-isopropyl-[1,3,4]thiadiazol-2-ylsulfamoyl)-phenyl]-ethyl}-2-methoxy-benzamide]"
10,70,"CCOc1cc(C(F)(F)F)ccc1C(=O)NCC(C)c1ccc(S(=O)(=O)Nc2nnc(C(C)C)s2)cc1 (single isomer, unassigned) [Example 43b]"
11,70,"CCOc1cc(C(F)(F)F)ccc1C(=O)NCC(C)c1ccc(S(=O)(=O)Nc2nnc(C(C)C)s2)cc1 (single isomer, unassigned) [Example 43a]"
12,90,"CCOc1cc(C(F)(F)F)ccc1C(=O)NCC(C)c1ccc(S(=O)(=O)Nc2nnc(C(C)C)s2)cc1 (racemic) [Example 43, 2-Ethoxy-N-{2-[4-(5-isopropyl-[1,3,4]thiadiazol-2-ylsulfamoyl)-phenyl]-propyl}-4-trifluoromethyl-benzamide]"
